The source of these data is US20250352524A1, “PREVENTION OF METASTATIC OUTGROWTH USING TEAD INHIBITORS” (Georgetown University, priority 2024, published 2025).

One assay concerns peritoneal macrophages. Nature of the assay: Gene expression and pathway analysis of peritoneal macrophages treated in vitro. In kind it is cell-based, mouse. An excerpt: (§1) To investigate whether the effect of iTEAD treatment on macrophages can enhance their crosstalk with T-cells in the lung microenvironment, peritoneal macrophages+/−iTEAD were first isolated and characterized as a model of resident macrophages for ex vivo experiments (FIG. 14, Panel A). It was observed that treatment with VT107 decreased gene expression of M2-like and fibrosis regulators, Aldh1a1 and Cc117 (Chen et al., 2020), as well as TEAD4 and its downstream target gene Ankrd1. […] The iTEAD pretreated peritoneal macrophages and untreated T-cells isolated from the spleen of tumor naïve mice (FIG. 14, Panel A) were then mixed for 5 hours before collecting the conditioned media for analysis. […] Next, these immune cell mixes were added to 4T1 spheres that were embedded into matrix. […] This effect was reversed by an IL12 neutralizing antibody. No change in cleaved caspase-3 in 4T1 cells in the presence of VT107-treated T-cells or macrophages alone, was detected at 24 hours (FIG. 14, Panels C and D). 4T1 cells were then plated and allowed to attach on electrode-coated arrays to monitor cancer cell viability before the addition of macrophages+/−iTEAD and T-cells. […] This reversal of T-cell cytotoxicity by IL12 antibodies was not observed in VT107-treated T-cells in the absence of macrophages (FIG. 15, Panel E) indicating a critical role for IL12 in the crosstalk between macrophages and T-cells.
The total RNA from tissue or cell lines was extracted using RNeasy Mini Kit (Qiagen, #74104) according to the manufacturer's instructions. Total RNA integrity was assessed with the Agilent 2100 Bioanalyzer. The library preparation and next-generation sequencing (NGS) were performed at Novogene Corporation Inc. (Sacramento, CA, USA). At least triplicate samples per experimental condition were analyzed, raw sequence reads (150 bp paired end, […] average reads/sample) were aligned to the human or mouse transcriptome using STAR, and aligned reads translated to expression counts via featurecounts, followed by a standard edgeR (RRID:SCR_012802) pipeline to identify DEGs under specific conditions. Ingenuity pathway analysis (IPA, RRID:SCR_008653) was undertaken using a list of all differentially expressed genes with a cutoff of p-value less than 0.05 to identify signaling pathways and upstream regulators.

For a further assay, the system named is 4T1 spheres. Briefly: 3D sphere co-culture assay, 4T1 spheres with T-cells and/or macrophages. Format: cell-based, mouse. The note with it: for cleaved caspase-3 in 4T1 cells: 24 hours. How it is done: T-cells were isolated from the spleens of naïve mice, activated by CD3/CD28, and treated with either 1 μM iTEAD or vehicle. Peritoneal macrophages were isolated from the peritoneal lavage of naïve mice after attachment on culture dishes and treated with either 1 μM iTEAD or vehicle. The immune cells were mixed with tumor cells that were aggregated into spheres in u-shaped molds for 24 hours (FIG. 7).
as §1
The hippo pathway has been implicated in T-cell development and function (Du et al., 2014; Ueda et al., 2012). For example, YAP expression is essential for tumor immune suppression by Treg cells that attenuates CD8 T-cell immunity (Geng et al., 2017; Ni et al., 2018; Lebid et al., 2020). […] To investigate whether VT107 directly affected T-cells, T-cells treated with VT107 were co-cultured with 4T1 cells in 2D for 72 hours. […] To further confirm T-cell activation upon TEAD activity reduction, we used Jurkat cells, a CD4 positive human lymphoma cell line (Schneider et al., 1977). […] However, here we show the specific effect of TEAD reduction on granzyme gene expression and degranulation that result in the killing of cancer cells.
One thousand 4T1 cells were aggregated in 81-well agarose molds (Microtissues, #Z764019). […] Images were captured using the Olympus BX40 microscope, and DAB signal per sphere was quantified in imageJ and normalized to the number of nuclei. […]

Setting [1] is: 1 μM VT107 for 24 hours, pathway analysis.

Regarding VT107, in the assay on peritoneal macrophages (setting [1]), the “cell cycle related pathways” value is “upregulated” and the “disease-related chronic inflammation pathways” value was “downregulation”. Also, in the assay with peritoneal macrophages (1 μM VT107 for 72 hours), the Pvalb gene expression entry was “top upregulated gene”; the “gene expression of Aldh1a1, Cc117, TEAD4 and Ankrd1” value is reported as “decreased”. The “cleaved caspase-3 in 4T1 cells” value with 4T1 spheres (VT107-treated T-cells or macrophages alone) is recorded as “No change”. The “cleaved caspase-3 IHC staining of 4T1 spheres” value in the assay with 4T1 spheres (co-culture with T-cells treated with 1 μM VT107, 72 hours) is “increased”. For the same substance, in the assay with 4T1 spheres (co-culture with T-cells treated with 1 μM VT107, 72 hours vs vehicle), the “number of 4T1 cells per sphere” value is reported as “significantly reduced”. The “cleaved caspase-3 in 4T1 cells” value with 4T1 spheres (iTEAD-treated macrophages and T-cells, spheres in matrix) was “elevated signal”.
